Source: US20230008368A1, “IMIDAZOQUINOLINE SUBSTITUTED PHOSPHORIC ESTER AGONIST, AND PREPARATION THEREFOR AND APPLICATION THEREOF” (SUZHOU ZELGEN BIOPHARMACEUTICALS CO., LTD., priority 2019, published 2023)
pEC50: −log10 of the molar value.

Experiments:
[1] = cytotoxicity, cell viability by CellTiter-Glo; type: cell-based, human; details: human, HEK-Blue hTLR cells, cultured 1 day
Experimental: (§1) The compound was diluted with 1:3 series with DMSO for 9 concentration points, duplicated wells, and added to 96-well plate with Echo.
(§2) The HEK-Blue™ hTLR cells were suspended in the culture medium and then seeded into a 96-well plate containing the compound at a density of 50,000 cells/well. Cells were cultured at 5% CO2 and 37° C. for 1 day. The final concentration of DMSO in the cell culture medium was 0.5%.
According to the CellTiter-Glo instructions, the cell viability was measured, and the Luminescence signal value was read by the microplate reader, which was used to calculate the cytotoxicity of the compound.
(§3) The EC50 and CC50 values of the compound were calculated by GraphPad Prism software, and the fitting curve was plotted.

hTLR8 = molecular target: T1, hTLR8 (Homo sapiens, UniProt Q9NR97); test: agonistic activity on hTLR8, HEK-Blue hTLR cells, SEAP reporter (QUANTI-Blue); type: cell-based; details: HEK-Blue hTLR cells, SEAP reporter, OD650, cultured 1 day; read-out: TLR 8 EC50
T1 construct: expressed in transfected cells; host or cells: HEK-Blue hTLR cells
T1 sequence (Q9NR97 27-1041): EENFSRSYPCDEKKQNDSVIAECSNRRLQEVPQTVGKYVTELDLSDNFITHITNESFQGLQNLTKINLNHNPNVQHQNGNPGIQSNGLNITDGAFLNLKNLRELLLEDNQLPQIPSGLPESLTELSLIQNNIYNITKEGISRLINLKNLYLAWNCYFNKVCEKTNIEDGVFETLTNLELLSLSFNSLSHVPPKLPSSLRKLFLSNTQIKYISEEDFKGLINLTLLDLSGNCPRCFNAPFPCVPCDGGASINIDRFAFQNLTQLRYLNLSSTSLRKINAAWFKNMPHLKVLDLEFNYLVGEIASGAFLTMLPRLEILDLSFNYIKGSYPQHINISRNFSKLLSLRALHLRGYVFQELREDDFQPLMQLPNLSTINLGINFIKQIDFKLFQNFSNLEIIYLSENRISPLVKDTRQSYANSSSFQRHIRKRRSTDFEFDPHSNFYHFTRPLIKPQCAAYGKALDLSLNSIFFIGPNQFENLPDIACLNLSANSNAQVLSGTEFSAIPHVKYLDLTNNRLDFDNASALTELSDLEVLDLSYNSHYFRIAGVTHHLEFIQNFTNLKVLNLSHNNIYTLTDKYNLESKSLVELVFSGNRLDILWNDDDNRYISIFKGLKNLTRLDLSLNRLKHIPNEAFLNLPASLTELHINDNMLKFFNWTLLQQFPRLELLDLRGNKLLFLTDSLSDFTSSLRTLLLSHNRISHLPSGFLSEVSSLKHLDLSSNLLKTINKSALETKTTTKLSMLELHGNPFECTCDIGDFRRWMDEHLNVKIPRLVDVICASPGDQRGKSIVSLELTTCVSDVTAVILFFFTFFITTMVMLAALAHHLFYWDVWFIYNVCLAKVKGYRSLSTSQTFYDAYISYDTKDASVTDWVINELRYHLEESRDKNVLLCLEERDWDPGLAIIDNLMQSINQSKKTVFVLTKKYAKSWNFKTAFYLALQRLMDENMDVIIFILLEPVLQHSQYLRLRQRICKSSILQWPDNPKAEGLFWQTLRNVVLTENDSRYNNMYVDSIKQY
Experimental: Experiments on the agonistic activity of TLR7 and TLR8 by the compounds in vitro
as §1, §2
20 uL cell culture supernatant was taken, according to the QUANTI-Blue instructions, the reporter gene SEAP in the supernatant was detected, and the OD650 signal value was read with a microplate reader to calculate the agonist activity of the compound on the hTLR7 and hTLR8.
as §3

What does the source list for `CCOCc1nc2c(N)nc3ccccc3c2n1C[C@@H](C)O[P@](=O)(N[C@@H](C)C(=O)OC(C)C)Oc1ccc2ccccc2c1` (single isomer, unassigned) [Example 6B]?
CC50 at 1 day [1]: > 30000 nM; pEC50 (hTLR8): 7.64

Which CC50 at 1 day [1] does the source give for `CCOCc1nc2c(N)nc3ccccc3c2n1C[C@@H](C)O[P@@](=O)(N[C@@H](C)C(=O)OC(C)C)Oc1ccccc1C` (single isomer, unassigned) [Example 7A] here?
The CC50 at 1 day was > 30000 nM.

What about the pEC50 (hTLR8) of the same molecule?
The pEC50 was 6.67.

Which CC50 at 1 day [1] does the source give for `CCOCc1nc2c(N)nc3ccccc3c2n1C[C@@H](C)O[P@](=O)(N[C@@H](C)C(=O)OC(C)C)Oc1ccccc1C` (single isomer, unassigned) [Example 7B] here?
The CC50 at 1 day was > 30000 nM.

And the pEC50 (hTLR8)?
Its pEC50 is 7.39.

With `CCOCc1nc2c(N)nc3ccccc3c2n1C[C@@H](C)O[P@@](=O)(N[C@@H](C)C(=O)OC(C)C)Oc1cccc(C)c1` (single isomer, unassigned) [Example 8A] as the molecule, how does the CC50 at 1 day [1] read?
The CC50 at 1 day was > 30000 nM.

And the pEC50 (hTLR8)?
The pEC50 was 7.44.

Which CC50 at 1 day [1] does the source give for `CCOCc1nc2c(N)nc3ccccc3c2n1C[C@@H](C)O[P@](=O)(N[C@@H](C)C(=O)OC(C)C)Oc1cccc(C)c1` (single isomer, unassigned) [Example 8B] here?
The CC50 at 1 day was > 30000 nM.

And the pEC50 (hTLR8)?
Its pEC50 is 7.19.

Which results are given for `CCOCc1nc2c(N)nc3ccccc3c2n1C[C@@H](C)O[P@](=O)(N[C@@H](C)C(=O)OC(C)C)Oc1ccc(C)cc1` (single isomer, unassigned) [Example 9B]?
CC50 at 1 day [1]: > 30000 nM; pEC50 (hTLR8): 7.15

With `CCOCc1nc2c(N)nc3ccccc3c2n1C[C@@H](C)O[P@@](=O)(N[C@@H](C)C(=O)OC(C)C)Oc1ccccc1Cl` (single isomer, unassigned) [Example 10A] as the molecule, how does the CC50 at 1 day [1] read?
The CC50 at 1 day was > 30000 nM.

And the pEC50 (hTLR8)?
Its pEC50 is 7.47.

For `CCOCc1nc2c(N)nc3ccccc3c2n1C[C@@H](C)O[P@](=O)(N[C@@H](C)C(=O)OC(C)C)Oc1ccccc1Cl` (single isomer, unassigned) [Example 10B], which CC50 at 1 day [1] is on record?
The CC50 at 1 day was > 30000 nM.

And the pEC50 (hTLR8)?
The pEC50 was 7.89.

For `CCOCc1nc2c(N)nc3ccccc3c2n1C[C@@H](C)O[P@](=O)(N[C@@H](C)C(=O)OC(C)C)Oc1cccc(Cl)c1` (single isomer, unassigned) [Example 11B], which CC50 at 1 day [1] is on record?
The CC50 at 1 day was > 30000 nM.

What about the pEC50 (hTLR8) of the same molecule?
The pEC50 was 7.15.

For `CCOCc1nc2c(N)nc3ccccc3c2n1C[C@@H](C)O[P@](=O)(N[C@@H](C)C(=O)OC(C)C)Oc1ccc(Cl)cc1` (single isomer, unassigned) [Example 12B], which CC50 at 1 day [1] is on record?
Its CC50 at 1 day is > 30000 nM.

What about the pEC50 (hTLR8) of the same molecule?
The pEC50 was 7.31.

Which CC50 at 1 day [1] does the source give for `CCOCc1nc2c(N)nc3ccccc3c2n1C[C@@H](C)O[P@@](=O)(N[C@H](C)C(=O)OC(C)C)Oc1ccccc1` (single isomer, unassigned) [Example 13A] here?
Its CC50 at 1 day is > 30000 nM.

What about the pEC50 (hTLR8) of the same molecule?
Its pEC50 is 6.12.

With `CCOCc1nc2c(N)nc3ccccc3c2n1C[C@@H](C)O[P@](=O)(N[C@H](C)C(=O)OC(C)C)Oc1ccccc1` (single isomer, unassigned) [Example 13B] as the molecule, how does the CC50 at 1 day [1] read?
The CC50 at 1 day was > 30000 nM.

What about the pEC50 (hTLR8) of the same molecule?
The pEC50 was 5.73.

What does the source list for `CCOCc1nc2c(N)nc3ccccc3c2n1C[C@@H](C)O[P@](=O)(N[C@@H](C)C(=O)OC(C)(C)C)Oc1ccccc1` (single isomer, unassigned) [Example 14B]?
CC50 at 1 day [1]: > 30000 nM; pEC50 (hTLR8): 5.89

With `CCOCc1nc2c(N)nc3ccccc3c2n1C[C@@H](C)O[P@@](=O)(N[C@@H](C)C(=O)OC)Oc1ccccc1` (single isomer, unassigned) [Example 15A] as the molecule, how does the CC50 at 1 day [1] read?
Its CC50 at 1 day is > 30000 nM.

And the pEC50 (hTLR8)?
The pEC50 was 7.17.

With `CCOCc1nc2c(N)nc3ccccc3c2n1C[C@@H](C)O[P@](=O)(N[C@@H](C)C(=O)OC)Oc1ccccc1` (single isomer, unassigned) [Example 15B] as the molecule, how does the CC50 at 1 day [1] read?
The CC50 at 1 day was > 30000 nM.

What about the pEC50 (hTLR8) of the same molecule?
The pEC50 was 7.32.

For `CCOCc1nc2c(N)nc3ccccc3c2n1C[C@@H](C)O[P@](=O)(N[C@@H](C)C(=O)OCc1ccccc1)Oc1ccccc1` (single isomer, unassigned) [Example 16B], which CC50 at 1 day [1] is on record?
Its CC50 at 1 day is > 30000 nM.

What about the pEC50 (hTLR8) of the same molecule?
The pEC50 was 7.94.

With `CCOCc1nc2c(N)nc3ccccc3c2n1C[C@@H](C)O[P@](=O)(N[C@@H](C)C(=O)OC(C)(C)C)Oc1ccc(C)cc1` (single isomer, unassigned) [Example 17B] as the molecule, how does the CC50 at 1 day [1] read?
Its CC50 at 1 day is > 30000 nM.

What about the pEC50 (hTLR8) of the same molecule?
Its pEC50 is 5.53.

Which CC50 at 1 day [1] does the source give for `CCOCc1nc2c(N)nc3ccccc3c2n1C[C@@H](C)O[P@](=O)(N[C@@H](C)C(=O)OC(C)(C)C)Oc1ccc(OC)cc1` (single isomer, unassigned) [Example 18B] here?
Its CC50 at 1 day is > 30000 nM.

What about the pEC50 (hTLR8) of the same molecule?
The pEC50 was 5.61.

Which CC50 at 1 day [1] does the source give for `CCOCc1nc2c(N)nc3ccccc3c2n1C[C@@H](C)O[P@](=O)(N[C@@H](C)C(=O)OC(C)(C)C)Oc1ccc(Cl)cc1` (single isomer, unassigned) [Example 19B] here?
The CC50 at 1 day was > 30000 nM.

And the pEC50 (hTLR8)?
Its pEC50 is 5.60.

With `CCOCc1nc2c(N)nc3ccccc3c2n1C[C@@H](C)OP(=O)(N[C@@H](C)C(F)(F)F)Oc1ccccc1` (single isomer, unassigned) [Example 24A] as the molecule, how does the pEC50 (hTLR8) read?
The pEC50 was < 4.52.

With `CCOCc1nc2c(N)nc3ccccc3c2n1C[C@@H](C)OP(=O)(N[C@H](C(=O)OC(C)(C)C)C(C)C)Oc1ccc(Cl)cc1` (stereo partly shown) [Example 22] as the molecule, how does the pEC50 (hTLR8) read?
Its pEC50 is 5.74.

With `CCOCc1nc2c(N)nc3ccccc3c2n1C[C@@H](C)O[P@@](=O)(N[C@@H](C)C(C)C)Oc1ccc(Cl)cc1` [Example 23A, (R)-1-(4-amino-2-(ethoxymethyl)-1H-imidazo [4,5-c]quinolin-1-yl) propan-2-yl (4-chlorophenyl) (S)—((S)-3-methylbutan-2-yl) phosphoramide] as the molecule, how does the pEC50 (hTLR8) read?
Its pEC50 is < 4.52.

With `CCOCc1nc2c(N)nc3ccccc3c2n1C[C@@H](C)O[P@](=O)(N[C@@H](C)C(C)C)Oc1ccc(Cl)cc1` [Example 23B, (R)-1-(4-amino-2-(ethoxymethyl)-1H-imidazo [4,5-c]quinolin-1-yl) propan-2-yl (4-chlorophenyl) (R)—((S)-3-methylbutan-2-yl) phosphoramide] as the molecule, how does the pEC50 (hTLR8) read?
Its pEC50 is 4.74.

With `CCOCc1nc2c(N)nc3ccccc3c2n1C[C@@H](C)O[P@](=O)(N[C@@H](C)C(F)(F)F)Oc1ccc(Cl)cc1` [Example 24B, (R)-1-(4-amino-2-(ethoxymethyl)-1H-imidazo [4,5-c]quinolin-1-yl) propan-2-yl (4-chlorophenyl) (R)—((S)-1,1,1-trifluoropropan-2-yl) phosphoramide] as the molecule, how does the pEC50 (hTLR8) read?
The pEC50 was < 4.52.

With `CCOCc1nc2c(N)nc3ccccc3c2n1C[C@@H](C)O[P@@](=O)(N[C@@H](C)COC)Oc1ccc(Cl)cc1` [Example 25A, (R)-1-(4-amino-2-(ethoxymethyl)-1H-imidazo [4,5-c]quinolin-1-yl) propan-2-yl (4-chlorophenyl) (S)—((S)-1-methoxypropan-2-yl) phosphoramide] as the molecule, how does the pEC50 (hTLR8) read?
The pEC50 was < 4.52.

With `CCOCc1nc2c(N)nc3ccccc3c2n1C[C@@H](C)O[P@](=O)(N[C@@H](C)COC)Oc1ccc(Cl)cc1` [Example 25B, (R)-1-(4-amino-2-(ethoxymethyl)-1H-imidazo [4,5-c]quinolin-1-yl) propan-2-yl (4-chlorophenyl) (R)—((S)-1-methoxypropan-2-yl) Phosphoramide] as the molecule, how does the pEC50 (hTLR8) read?
Its pEC50 is < 4.52.

Which CC50 at 1 day [1] does the source give for `CCOCc1nc2c(N)nc3ccccc3c2n1CC(C)(C)O` [Example R848, reference compound] here?
Its CC50 at 1 day is > 10000 nM.
